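All cell lines were grown in 96-well plates and treated with compound for 48 hours. TGI denotes the concentration required for complete inhibition of growth.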
Tests used:
Assay in all cases: DTP human tumour cell line panel, 48 h
[1] = system: 786-0 renal
[2] = system: A498 renal
[3] = system: A549 NSCLC
[4] = system: ACHN renal
[5] = system: CAKI-1 renal
[6] = system: CCRF-CEM leukemia
[7] = system: COLO 205 colon
[8] = system: DLD-1 colon
[9] = system: DMS 114 small cell lung
[10] = system: DMS 273 small cell lung
[11] = system: EKVX NSCLC
[12] = system: HCT-116 colon
[13] = system: HL-60(TB) leukemia
[14] = system: HOP-18 NSCLC
[15] = system: HOP-62 NSCLC
[16] = system: HOP-92 NSCLC
[17] = system: HT29 colon
[18] = system: IGROV1 ovarian
[19] = system: K-562 leukemia
[20] = system: KM12 colon
[21] = system: KM20L2 colon
[22] = system: LOX IMVI melanoma
[23] = system: LXFL 529 NSCLC
[24] = system: M14 melanoma
[25] = system: M19-MEL melanoma
[26] = system: MALME-3M melanoma
[27] = system: MOLT-4 leukemia
[28] = system: NCI-H226 lung
[29] = system: NCI-H23 lung
[30] = system: NCI-H460 lung
[31] = system: NCI-H522 lung
[32] = system: OVCAR-3 ovarian
[33] = system: OVCAR-4 ovarian
[34] = system: OVCAR-5 ovarian
[35] = system: OVCAR-8 ovarian
[36] = system: RPMI-8226 leukemia
[37] = system: RXF 393 renal
[38] = system: SF-268 CNS
[39] = system: SF-295 CNS
[40] = system: SF-539 CNS
[41] = system: SK-MEL-2 melanoma
[42] = system: SK-MEL-28 melanoma
[43] = system: SK-MEL-5 melanoma
[44] = system: SK-OV-3 ovarian
[45] = system: SN12C renal
[46] = system: SNB-19 CNS
[47] = system: SNB-75 CNS
[48] = system: SNB-78 CNS
[49] = system: SW-620 colon
[50] = system: TK-10 renal
[51] = system: U251 CNS
[52] = system: UACC-257 melanoma
[53] = system: UACC-62 melanoma
[54] = system: UO-31 renal
[55] = system: XF 498 CNS
[56] = system: BT-549 breast
[57] = system: DU-145 prostate
[58] = system: HCC-2998 colon
[59] = system: HCT-15 colon
[60] = system: HS 578T breast
[61] = system: MCF7 breast
[62] = system: MDA-MB-231 breast
[63] = system: MDA-MB-435
[64] = system: MDA-N
[65] = system: NCI/ADR-RES ovarian
[66] = system: PC-3 prostate
[67] = system: SR leukemia
[68] = system: T-47D breast

## O=C(OCCO)C1CC2CC1C1(C2)OCCO1 (stereo not drawn)
[1]
  TGI: > 100 µM
[2]
  TGI: > 100 µM
[3]
  TGI: > 100 µM
[4]
  TGI: > 100 µM
[5]
  TGI: > 100 µM
[6]
  TGI: > 100 µM
[7]
  TGI: > 100 µM
[8]
  TGI: > 100 µM
[9]
  TGI: > 100 µM
[10]
  TGI: > 100 µM
[11]
  TGI: > 100 µM
[12]
  TGI: > 100 µM
[13]
  TGI: > 100 µM
[14]
  TGI: > 100 µM
[15]
  TGI: > 100 µM
[16]
  TGI: > 100 µM
[17]
  TGI: > 100 µM
[18]
  TGI: > 100 µM
[19]
  TGI: > 100 µM
[20]
  TGI: > 100 µM
[21]
  TGI: > 100 µM
[22]
  TGI: > 100 µM
[23]
  TGI: > 100 µM
[24]
  TGI: > 100 µM
[25]
  TGI: > 100 µM
[26]
  TGI: > 100 µM
[27]
  TGI: > 100 µM
[28]
  TGI: > 100 µM
[29]
  TGI: > 100 µM
[30]
  TGI: > 100 µM
[31]
  TGI: > 100 µM
[32]
  TGI: > 100 µM
[33]
  TGI: > 100 µM
[34]
  TGI: > 100 µM
[35]
  TGI: > 100 µM
[36]
  TGI: > 100 µM
[37]
  TGI: > 100 µM
[38]
  TGI: > 100 µM
[39]
  TGI: > 100 µM
[40]
  TGI: > 100 µM
[41]
  TGI: > 100 µM
[42]
  TGI: > 100 µM
[43]
  TGI: > 100 µM
[44]
  TGI: > 100 µM
[45]
  TGI: > 100 µM
[46]
  TGI: > 100 µM
[47]
  TGI: > 100 µM
[48]
  TGI: > 100 µM
[49]
  TGI: > 100 µM
[50]
  TGI: > 100 µM
[51]
  TGI: > 100 µM
[52]
  TGI: > 100 µM
[53]
  TGI: > 100 µM
[54]
  TGI: > 100 µM
[55]
  TGI: > 100 µM

## COc1ccc(/C=c2/s/c(=C(\C#N)c3nc4ccccc4[nH]3)n(-c3ccccc3)c2=O)cc1
[1]
  TGI: > 42.1 µM
[2]
  TGI: > 76.5 µM
[3]
  TGI: > 100 µM
[4]
  TGI: > 100 µM
[56]
  TGI: 54.8 µM
[5]
  TGI: > 100 µM
[6]
  TGI: > 100 µM
[7]
  TGI: > 100 µM
[8]
  TGI: > 100 µM
[9]
  TGI: > 100 µM
[10]
  TGI: > 100 µM
[57]
  TGI: > 100 µM
[11]
  TGI: > 100 µM
[58]
  TGI: > 100 µM
[12]
  TGI: > 55.7 µM
[59]
  TGI: > 100 µM
[13]
  TGI: > 100 µM
[14]
  TGI: 79 µM
[15]
  TGI: > 54 µM
[16]
  TGI: 37.7 µM
[60]
  TGI: 22.4 µM
[17]
  TGI: 24.7 µM
[18]
  TGI: > 100 µM
[19]
  TGI: > 100 µM
[20]
  TGI: > 100 µM
[21]
  TGI: > 100 µM
[22]
  TGI: > 100 µM
[23]
  TGI: > 100 µM
[24]
  TGI: > 100 µM
[25]
  TGI: > 100 µM
[26]
  TGI: > 88.6 µM
[61]
  TGI: > 100 µM
[62]
  TGI: 49.5 µM
[63]
  TGI: > 100 µM
[64]
  TGI: > 100 µM
[27]
  TGI: > 100 µM
[28]
  TGI: 92.7 µM
[29]
  TGI: > 63.5 µM
[30]
  TGI: > 74.9 µM
[31]
  TGI: > 100 µM
[65]
  TGI: 20.3 µM
[32]
  TGI: > 75.3 µM
[33]
  TGI: 28.1 µM
[34]
  TGI: > 100 µM
[35]
  TGI: 51 µM
[66]
  TGI: 67.3 µM
[36]
  TGI: > 100 µM
[37]
  TGI: > 100 µM
[38]
  TGI: > 100 µM
[39]
  TGI: > 100 µM
[40]
  TGI: > 61.5 µM
[41]
  TGI: > 100 µM
[42]
  TGI: > 100 µM
[43]
  TGI: > 100 µM
[44]
  TGI: 71.6 µM
[45]
  TGI: > 100 µM
[46]
  TGI: > 100 µM
[47]
  TGI: > 68.8 µM
[67]
  TGI: > 100 µM
[49]
  TGI: > 58.9 µM
[68]
  TGI: > 100 µM
[50]
  TGI: > 100 µM
[51]
  TGI: > 100 µM
[52]
  TGI: > 100 µM
[53]
  TGI: > 47.5 µM
[54]
  TGI: > 100 µM
[55]
  TGI: 88.6 µM

## Cn1c(=O)nc2n(-c3cc(Cl)ccc3Cl)c3ccccc3nc-2c1=O
[1]
  TGI: 34.6 µM
[2]
  TGI: 35.7 µM
[3]
  TGI: 21.9 µM
[4]
  TGI: 13.6 µM
[5]
  TGI: 27.8 µM
[6]
  TGI: 21.3 µM
[7]
  TGI: 6.43 µM
[8]
  TGI: 16.6 µM
[9]
  TGI: 4.92 µM
[10]
  TGI: 16.2 µM
[11]
  TGI: 13 µM
[58]
  TGI: 9.32 µM
[12]
  TGI: 16.2 µM
[59]
  TGI: 15.4 µM
[14]
  TGI: 25.3 µM
[15]
  TGI: 46.4 µM
[17]
  TGI: 5.47 µM
[18]
  TGI: 29.7 µM
[19]
  TGI: > 100 µM
[20]
  TGI: 20.1 µM
[21]
  TGI: 7.9 µM
[23]
  TGI: 28.3 µM
[24]
  TGI: 15.2 µM
[25]
  TGI: 2.85 µM
[26]
  TGI: 12.2 µM
[27]
  TGI: 28.6 µM
[28]
  TGI: 22 µM
[29]
  TGI: 4.06 µM
[30]
  TGI: 13.4 µM
[31]
  TGI: 18.8 µM
[32]
  TGI: 9.92 µM
[33]
  TGI: 17.8 µM
[34]
  TGI: 25.7 µM
[35]
  TGI: 14.4 µM
[36]
  TGI: 33.7 µM
[37]
  TGI: 34.1 µM
[38]
  TGI: 30.7 µM
[39]
  TGI: 21.2 µM
[40]
  TGI: 19.5 µM
[41]
  TGI: 18.1 µM
[43]
  TGI: 4.55 µM
[44]
  TGI: 91.9 µM
[45]
  TGI: 16.7 µM
[46]
  TGI: 13.3 µM
[47]
  TGI: 24.6 µM
[48]
  TGI: 31.6 µM
[49]
  TGI: 6.86 µM
[50]
  TGI: 30.4 µM
[51]
  TGI: 20.4 µM
[52]
  TGI: 5.2 µM
[53]
  TGI: 3.38 µM
[54]
  TGI: 26.4 µM
[55]
  TGI: 18.9 µM

## CCn1c(=O)nc2n(-c3ccccc3)c3ccccc3nc-2c1=O
[1]
  TGI: > 100 µM
[2]
  TGI: > 100 µM
[3]
  TGI: > 100 µM
[4]
  TGI: 68.7 µM
[5]
  TGI: > 100 µM
[6]
  TGI: 72.3 µM
[7]
  TGI: 16 µM
[8]
  TGI: > 100 µM
[9]
  TGI: 30.3 µM
[10]
  TGI: 34.7 µM
[11]
  TGI: > 100 µM
[58]
  TGI: 94 µM
[59]
  TGI: 65.4 µM
[13]
  TGI: 38.5 µM
[14]
  TGI: > 100 µM
[15]
  TGI: > 100 µM
[16]
  TGI: 62.4 µM
[18]
  TGI: 74.2 µM
[19]
  TGI: 61.2 µM
[20]
  TGI: > 100 µM
[21]
  TGI: 85.4 µM
[23]
  TGI: > 100 µM
[24]
  TGI: 35 µM
[25]
  TGI: 25.2 µM
[26]
  TGI: 31.7 µM
[27]
  TGI: 40.4 µM
[28]
  TGI: 63.8 µM
[29]
  TGI: > 100 µM
[30]
  TGI: > 100 µM
[31]
  TGI: > 100 µM
[32]
  TGI: 43.1 µM
[33]
  TGI: 25.9 µM
[34]
  TGI: 66.4 µM
[35]
  TGI: 67.9 µM
[36]
  TGI: > 100 µM
[38]
  TGI: 85.1 µM
[39]
  TGI: > 100 µM
[40]
  TGI: 38.8 µM
[41]
  TGI: 76.3 µM
[42]
  TGI: > 100 µM
[43]
  TGI: 22.8 µM
[44]
  TGI: > 100 µM
[45]
  TGI: 64.8 µM
[46]
  TGI: 76 µM
[47]
  TGI: > 100 µM
[48]
  TGI: > 100 µM
[49]
  TGI: 86.5 µM
[50]
  TGI: > 100 µM
[51]
  TGI: 75.2 µM
[52]
  TGI: 38.7 µM
[53]
  TGI: 31.9 µM
[54]
  TGI: > 100 µM
[55]
  TGI: 34.5 µM

From PubChem BioAssay (NCI)
